Measurements published in PMC6631349 (Xenobiotica; the fate of foreign compounds in biological …, 2014).
Like-named read-outs stand apart in the source and are kept apart here.

Legend:
[1] = biological target: T1, UGT2B7 (Homo sapiens, UniProt P16662); test: UGT2B7 supersomes-catalyzed 4-MU glucuronidation inhibition; conditions: recombinant human UGT, mean of triplicate
T1 sequence (P16662 24-529): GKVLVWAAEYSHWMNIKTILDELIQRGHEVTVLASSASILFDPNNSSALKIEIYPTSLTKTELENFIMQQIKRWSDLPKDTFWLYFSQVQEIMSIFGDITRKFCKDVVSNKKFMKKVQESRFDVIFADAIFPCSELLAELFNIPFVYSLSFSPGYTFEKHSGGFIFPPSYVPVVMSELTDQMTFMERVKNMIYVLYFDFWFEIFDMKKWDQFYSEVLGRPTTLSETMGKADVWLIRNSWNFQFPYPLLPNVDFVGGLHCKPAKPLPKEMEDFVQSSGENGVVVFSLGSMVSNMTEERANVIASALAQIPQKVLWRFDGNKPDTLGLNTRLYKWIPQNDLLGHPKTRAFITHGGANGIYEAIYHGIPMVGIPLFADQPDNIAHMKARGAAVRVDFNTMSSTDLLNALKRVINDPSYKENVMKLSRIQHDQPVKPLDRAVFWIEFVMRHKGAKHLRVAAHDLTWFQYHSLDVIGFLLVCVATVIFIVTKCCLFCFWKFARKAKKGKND

[2] = biological target: T2, UGT1A8 (Homo sapiens, UniProt Q9HAW9); conditions: recombinant human UGT, mean of triplicate
T2 sequence (Q9HAW9 26-530): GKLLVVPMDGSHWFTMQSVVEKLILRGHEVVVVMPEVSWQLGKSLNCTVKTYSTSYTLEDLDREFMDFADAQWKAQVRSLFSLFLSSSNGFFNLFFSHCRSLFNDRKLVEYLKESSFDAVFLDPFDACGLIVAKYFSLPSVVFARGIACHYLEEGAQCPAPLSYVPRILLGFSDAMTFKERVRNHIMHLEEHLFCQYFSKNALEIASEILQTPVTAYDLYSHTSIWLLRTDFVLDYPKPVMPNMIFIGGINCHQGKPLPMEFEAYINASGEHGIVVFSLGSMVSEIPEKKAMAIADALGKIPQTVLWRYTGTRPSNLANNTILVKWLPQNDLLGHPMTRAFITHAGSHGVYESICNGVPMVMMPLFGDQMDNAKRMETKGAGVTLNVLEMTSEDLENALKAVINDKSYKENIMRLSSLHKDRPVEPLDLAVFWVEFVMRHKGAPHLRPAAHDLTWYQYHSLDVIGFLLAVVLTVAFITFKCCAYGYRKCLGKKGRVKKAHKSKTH

[3] = biological target: T3, UGT1A6 (Homo sapiens, UniProt P19224); conditions: for residual activity 1A6: recombinant human UGT, mean of triplicate; for inhibition percentage of UGT1A6 activity: 50 μM
T3 sequence (P19224 27-532): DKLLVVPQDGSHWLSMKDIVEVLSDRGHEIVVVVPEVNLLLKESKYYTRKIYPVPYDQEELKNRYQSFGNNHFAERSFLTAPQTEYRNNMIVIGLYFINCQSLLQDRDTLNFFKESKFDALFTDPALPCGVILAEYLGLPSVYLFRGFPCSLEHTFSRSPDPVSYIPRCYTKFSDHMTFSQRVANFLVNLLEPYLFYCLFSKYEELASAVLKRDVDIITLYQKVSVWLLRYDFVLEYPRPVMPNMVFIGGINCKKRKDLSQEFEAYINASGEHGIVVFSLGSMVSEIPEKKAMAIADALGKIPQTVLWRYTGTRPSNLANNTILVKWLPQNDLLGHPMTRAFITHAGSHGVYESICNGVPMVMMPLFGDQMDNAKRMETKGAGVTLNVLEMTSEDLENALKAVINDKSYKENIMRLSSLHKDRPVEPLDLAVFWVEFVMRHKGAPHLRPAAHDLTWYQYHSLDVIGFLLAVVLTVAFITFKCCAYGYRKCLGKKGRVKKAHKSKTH

[4] = biological target: T4, UGT1A1 (Homo sapiens, UniProt P22309); test: UGT1A1 supersomes-catalyzed 4-MU glucuronidation inhibition; conditions: recombinant human UGT, mean of triplicate
T4 sequence (P22309 26-533): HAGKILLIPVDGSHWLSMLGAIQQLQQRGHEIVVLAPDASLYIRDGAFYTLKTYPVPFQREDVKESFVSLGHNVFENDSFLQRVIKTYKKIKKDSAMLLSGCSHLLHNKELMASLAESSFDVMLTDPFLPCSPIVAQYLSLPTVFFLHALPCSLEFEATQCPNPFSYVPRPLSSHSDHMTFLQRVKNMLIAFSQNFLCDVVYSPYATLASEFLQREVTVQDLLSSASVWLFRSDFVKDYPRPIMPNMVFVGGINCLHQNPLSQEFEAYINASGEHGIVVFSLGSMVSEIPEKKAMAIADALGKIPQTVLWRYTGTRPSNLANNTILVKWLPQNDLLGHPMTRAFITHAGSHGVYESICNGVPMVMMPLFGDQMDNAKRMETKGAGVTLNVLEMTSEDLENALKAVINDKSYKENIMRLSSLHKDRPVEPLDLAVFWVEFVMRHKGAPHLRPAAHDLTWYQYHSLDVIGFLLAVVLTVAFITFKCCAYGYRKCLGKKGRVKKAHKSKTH

[5] = biological target: T5, UGT2B4 (Homo sapiens, UniProt P06133); test: UGT2B4 supersomes-catalyzed 4-MU glucuronidation inhibition; conditions: recombinant human UGT, mean of triplicate
T5 sequence (P06133 24-528): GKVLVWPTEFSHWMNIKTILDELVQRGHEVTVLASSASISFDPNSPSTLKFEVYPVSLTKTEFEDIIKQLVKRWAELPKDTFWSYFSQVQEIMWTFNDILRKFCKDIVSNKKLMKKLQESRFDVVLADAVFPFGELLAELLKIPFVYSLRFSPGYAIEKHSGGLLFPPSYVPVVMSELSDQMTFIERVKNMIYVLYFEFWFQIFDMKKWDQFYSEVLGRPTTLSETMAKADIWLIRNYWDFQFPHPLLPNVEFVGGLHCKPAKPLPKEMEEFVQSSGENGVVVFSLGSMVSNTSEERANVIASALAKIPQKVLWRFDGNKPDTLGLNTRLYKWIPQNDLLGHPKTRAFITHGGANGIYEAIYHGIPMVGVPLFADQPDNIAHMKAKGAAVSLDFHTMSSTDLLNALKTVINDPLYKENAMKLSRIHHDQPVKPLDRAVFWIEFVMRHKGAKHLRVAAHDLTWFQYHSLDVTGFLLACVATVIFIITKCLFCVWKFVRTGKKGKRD

SMILES	residual activity 2B7 ([1]; 50 μM LPC components) [%]	residual activity 1A8 ([2]; 50 μM LPC components) [%]	residual activity 1A6 ([3]; 50 μM LPC components) [%]	residual activity 1A1 ([4]; 50 μM LPC components) [%]	residual activity 2B4 ([5]; 50 μM LPC components) [%]	residual activity 2B7 ([1]; 50 μM PC components) [%]	residual activity 1A8 ([2]; 50 μM PC components) [%]	inhibition percentage of UGT1A6 activity [3] [%]	residual activity 1A6 ([3]; 50 μM PC components) [%]	residual activity 1A1 ([4]; 50 μM PC components) [%]	residual activity 2B4 ([5]; 50 μM PC components) [%]	inhibition kinetic type towards UGT1A6 ([3]; Dixon and Lineweaver-Burk plots, 4-MU glucuronidation)
CCCCCC(=O)OC[C@@H](O)COP(=O)([O-])OCC[N+](C)(C)C [LPC 6:0]	70.0	108.0	72.7	176.7	183.6							
CCCCCCCCCCCCCC(=O)OC[C@@H](O)COP(=O)([O-])OCC[N+](C)(C)C [LPC 14:0]	90.5	19.2	33.3	171.3	217.1							
CCCCCCCCCC(=O)OC[C@H](COP(=O)([O-])OCC[N+](C)(C)C)OC(=O)CCCCCCCCC [PC 10:0, 10:0]						86.2	59.3	76.8	23.2	197.9	168.4	
CCCCCCCC(=O)OCC(O)COP(=O)([O-])OCC[N+](C)(C)C (stereo not drawn) [LPC 8:0]	70.1	102.7	74.2	184.9	185.0							
CCCCCCC(=O)OCC(O)COP(=O)([O-])OCC[N+](C)(C)C (stereo not drawn) [LPC 7:0]	73.8	101.1	71.0	174.9	183.5							
CCCCCCCCCCCCCCC(=O)OC[C@@H](O)COP(=O)([O-])OCC[N+](C)(C)C [LPC 15:0]	43.9	1.6	2.9	162.9	152.6							competitive inhibition
CCCCCCCCC(=O)OC[C@H](COP(=O)([O-])OCC[N+](C)(C)C)OC(=O)CCCCCCCC [PC 9:0, 9:0]						79.6	33.2	78.6	21.4	162.3	156.7	
CCCCCCCCCCCCCCCCCCCCC(=O)OC[C@H](COP(=O)([O-])OCC[N+](C)(C)C)OC(=O)CCCCCCCCCCCCCCCCCCCC [PC 21:0, 21:0]						26.2	36.9		85.4	185.2	80.3	
CCCCCCCCCCCC(=O)OC[C@@H](O)COP(=O)([O-])OCC[N+](C)(C)C [LPC 12:0]	72.8	89.2	80.2	165.9	255.5							
